Measured values published in ChEMBL document CHEMBL3603741, “Structure activity relationship of pyridoxazinone substituted RHS analogs of oxabicyclooctane-linked 1,5-naphthyridinyl novel bacterial topoisomerase inhibitors as broad-spectrum antibacterial agents (Part-6)” (Bioorg Med Chem Lett, 2015).
Values after ≈ are worked out from the molar mass of the structure shown.

Tests used:
[1] = tested on: Escherichia coli; experiment: Antibacterial activity against Escherichia coli ATCC 25922; assay type: functional
[2] = tested on: Staphylococcus aureus; experiment: Antibacterial activity against Staphylococcus aureus Smith; assay type: functional
[3] = tested on: Pseudomonas aeruginosa; experiment: Antibacterial activity against Pseudomonas aeruginosa PAO1; assay type: functional
[4] = tested on: Enterococcus faecium; experiment: Antibacterial activity against VanA-resistant Enterococcus faecium; assay type: functional
[5] = tested on: Streptococcus pneumoniae; experiment: Antibacterial activity against Streptococcus pneumoniae IID553; assay type: functional
[6] = tested on: Acinetobacter baumannii; experiment: Antibacterial activity against Acinetobacter baumannii IID876; assay type: functional
[7] = tested on: Staphylococcus aureus; experiment: Antibacterial activity against Staphylococcus aureus Smith infected in iv dosed ICR mouse assessed as increase in survival rate administered at 1 hr post infection measured on day 7; assay type: functional
[8] = tested on: Staphylococcus aureus; experiment: Antibacterial activity against Staphylococcus aureus Smith infected in po dosed ICR mouse assessed as increase in survival rate administered at 1 hr post infection measured on day 7; assay type: functional
[9] = tested on: Staphylococcus aureus; experiment: Ratio of MIC for quinolone-resistant Staphylococcus aureus MS5935 to MIC for […]; assay type: functional
[10] = molecular target: T1, Voltage-gated inwardly rectifying potassium channel KCNH2 (Homo sapiens, UniProt Q12809); experiment: Inhibition of MK499 binding to human ERG
T1 sequence (Q12809 whole entry): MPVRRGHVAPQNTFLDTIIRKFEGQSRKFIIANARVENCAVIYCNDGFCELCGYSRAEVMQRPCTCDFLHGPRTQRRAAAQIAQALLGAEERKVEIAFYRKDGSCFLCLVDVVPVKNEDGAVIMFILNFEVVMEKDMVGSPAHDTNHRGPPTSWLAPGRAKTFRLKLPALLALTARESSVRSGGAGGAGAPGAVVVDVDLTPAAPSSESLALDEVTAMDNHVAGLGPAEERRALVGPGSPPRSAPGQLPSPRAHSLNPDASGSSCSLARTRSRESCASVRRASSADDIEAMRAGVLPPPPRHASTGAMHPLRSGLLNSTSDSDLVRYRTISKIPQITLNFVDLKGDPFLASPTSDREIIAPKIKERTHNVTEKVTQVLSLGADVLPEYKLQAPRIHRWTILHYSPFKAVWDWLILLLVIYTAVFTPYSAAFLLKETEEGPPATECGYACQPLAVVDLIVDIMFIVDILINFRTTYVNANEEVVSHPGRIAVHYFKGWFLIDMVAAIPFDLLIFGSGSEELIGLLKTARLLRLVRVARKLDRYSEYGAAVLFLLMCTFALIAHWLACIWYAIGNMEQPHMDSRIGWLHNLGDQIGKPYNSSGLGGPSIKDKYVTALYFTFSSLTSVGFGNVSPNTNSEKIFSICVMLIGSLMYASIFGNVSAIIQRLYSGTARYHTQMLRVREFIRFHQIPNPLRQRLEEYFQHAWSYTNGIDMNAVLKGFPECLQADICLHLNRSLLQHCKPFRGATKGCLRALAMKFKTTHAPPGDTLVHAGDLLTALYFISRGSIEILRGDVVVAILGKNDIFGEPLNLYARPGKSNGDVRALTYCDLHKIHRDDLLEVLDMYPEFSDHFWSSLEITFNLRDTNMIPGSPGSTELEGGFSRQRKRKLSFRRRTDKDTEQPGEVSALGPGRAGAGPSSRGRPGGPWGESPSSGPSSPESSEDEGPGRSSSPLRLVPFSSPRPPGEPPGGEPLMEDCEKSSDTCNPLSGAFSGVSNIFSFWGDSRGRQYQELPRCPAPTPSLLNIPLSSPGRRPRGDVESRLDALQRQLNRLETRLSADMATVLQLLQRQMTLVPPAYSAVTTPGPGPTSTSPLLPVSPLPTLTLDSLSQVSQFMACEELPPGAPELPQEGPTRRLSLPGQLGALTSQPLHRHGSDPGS

[11] = molecular target: T1, Voltage-gated inwardly rectifying potassium channel KCNH2; experiment: Inhibition of human ERG expressed in CHO cells measured for 5 mins by automated patch clamp assay
[12] = Escherichia coli, ATCC 25922, read-out: MIC
[13] = Staphylococcus aureus, Smith, read-out: MIC
[14] = Pseudomonas aeruginosa, PAO1, read-out: MIC
[15] = Enterococcus faecium, read-out: MIC
[16] = Streptococcus pneumoniae, IID553, read-out: MIC
[17] = Acinetobacter baumannii, IID876, read-out: MIC

Compound | MIC [1, 12] [µg/mL] | MIC [2, 13] [µg/mL] | MIC [3, 14] [µg/mL] | MIC [4, 15] [µg/mL] | MIC [5, 16] [µg/mL] | MIC [6, 17] [µg/mL] | ED50 [7] [mg/kg] | ED50 [8] [mg/kg] | Ratio [9] | IC50 [10] [µM] | IC50 [11] [µM] | MIC [2] [µg/mL] | MIC [5] [µg/mL] | MIC [1] [µg/mL] | MIC [3] [µg/mL] | MIC [4] [µg/mL] | MIC [6] [µg/mL]
COc1ccc2ncc(F)c(CCC34CCC(NCc5ccc6c(n5)NC(=O)CO6)(CC3)CO4)c2n1 | 1 (≈ 2.03 µM) | 0.02 (≈ 0.0405 µM) | 4 (≈ 8.1 µM) | 0.5 (≈ 1.01 µM) | 0.13 (≈ 0.263 µM) | 0.5 (≈ 1.01 µM) | – | – | – | – | – | – | – | – | – | – | –
COc1ccc2ncc(F)c(CCC34CCC(NCc5nc6c(cc5Cl)OCC(=O)N6)(CC3)CO4)c2n1 | 2 (≈ 3.79 µM) | 0.02 (≈ 0.0379 µM) | 2 (≈ 3.79 µM) | 1 (≈ 1.89 µM) | 0.25 (≈ 0.473 µM) | 1 (≈ 1.89 µM) | – | – | – | – | – | – | – | – | – | – | –
COc1ccc2ncc(F)c(CCC34CCC(NCc5nc6c(cc5F)OCC(=O)N6)(CC3)CO4)c2n1 | 2 (≈ 3.91 µM) | 0.02 (≈ 0.0391 µM) | 8 (≈ 15.6 µM) | 1 (≈ 1.95 µM) | 0.13 (≈ 0.254 µM) | 0.5 (≈ 0.977 µM) | 2.5 | 3.9 | – | – | – | – | – | – | – | – | –
COc1ccc2ncc(F)c(CCC34CCC(NCc5nc6c(cc5OC)OCC(=O)N6)(CC3)CO4)c2n1 | 8 (≈ 15.3 µM) | 4 (≈ 7.64 µM) | 8 (≈ 15.3 µM) | 8 (≈ 15.3 µM) | 8 (≈ 15.3 µM) | 8 (≈ 15.3 µM) | – | – | <4 | – | – | – | – | – | – | – | –
COc1ccc2ncc(F)c(CCC34CCC(NCc5nc6c(cc5C)OCC(=O)N6)(CC3)CO4)c2n1 | 2 (≈ 3.94 µM) | 0.06 (≈ 0.118 µM) | 8 (≈ 15.8 µM) | 1 (≈ 1.97 µM) | 1 (≈ 1.97 µM) | 0.5 (≈ 0.985 µM) | – | – | – | – | – | – | – | – | – | – | –
COc1ccc2ncc(F)c(CCC34CCC(NCc5cc(C)c6c(n5)NC(=O)CO6)(CC3)CO4)c2n1 | 8 (≈ 15.8 µM) | 0.5 (≈ 0.985 µM) | 32 (≈ 63 µM) | 8 (≈ 15.8 µM) | 4 (≈ 7.88 µM) | 4 (≈ 7.88 µM) | – | – | – | – | – | – | – | – | – | – | –
COc1ccc2ncc(F)c(CCC34CCC(NCc5nc6c(c(C)c5C)OCC(=O)N6)(CC3)CO4)c2n1 | 2 (≈ 3.83 µM) | 1.06 (≈ 2.03 µM) | 16 (≈ 30.7 µM) | 2 (≈ 3.83 µM) | 8 (≈ 15.3 µM) | 4 (≈ 7.67 µM) | – | – | – | – | – | – | – | – | – | – | –
CCc1c(CNC23CCC(CCc4c(F)cnc5ccc(OC)nc45)(CC2)OC3)nc2c(c1C)OCC(=O)N2 | 32 (≈ 59.7 µM) | 2 (≈ 3.73 µM) | 32 (≈ 59.7 µM) | 32 (≈ 59.7 µM) | 32 (≈ 59.7 µM) | 32 (≈ 59.7 µM) | – | – | – | – | – | – | – | – | – | – | –
COc1ccc2ncc(F)c(CCC34CCC(NCc5nc6c(c(C)c5C(C)C)OCC(=O)N6)(CC3)CO4)c2n1 | 32 (≈ 58.2 µM) | 32 (≈ 58.2 µM) | 32 (≈ 58.2 µM) | 32 (≈ 58.2 µM) | 32 (≈ 58.2 µM) | 32 (≈ 58.2 µM) | – | – | – | – | – | – | – | – | – | – | –
C=Cc1c(CNC23CCC(CCc4c(F)cnc5ccc(OC)nc45)(CC2)OC3)nc2c(c1C)OCC(=O)N2 | 32 (≈ 60 µM) | 0.25 (≈ 0.469 µM) | 32 (≈ 60 µM) | 32 (≈ 60 µM) | 8 (≈ 15 µM) | 32 (≈ 60 µM) | – | – | – | – | – | – | – | – | – | – | –
COc1ccc2ncc(F)c(CCC34CCC(NCc5nc6c(c(C)c5F)OCC(=O)N6)(CC3)CO4)c2n1 | 32 (≈ 60.9 µM) | 0.5 (≈ 0.951 µM) | 32 (≈ 60.9 µM) | 32 (≈ 60.9 µM) | 4 (≈ 7.61 µM) | 32 (≈ 60.9 µM) | – | – | – | – | – | – | – | – | – | – | –
COc1ccc2ncc(F)c(CCC34CCC(NCc5ccc6c(n5)NC(=O)C(C)(C)O6)(CC3)CO4)c2n1 | 2 (≈ 3.83 µM) | 0.25 (≈ 0.479 µM) | 2 (≈ 3.83 µM) | 2 (≈ 3.83 µM) | 1 (≈ 1.92 µM) | 2 (≈ 3.83 µM) | – | – | <4 | 3 | – | – | – | – | – | – | –
COc1ccc2ncc(F)c(CCC34CCC(NCc5ccc6c(n5)N(C)C(=O)CO6)(CC3)CO4)c2n1 | 16 (≈ 31.5 µM) | 2 (≈ 3.94 µM) | 16 (≈ 31.5 µM) | 16 (≈ 31.5 µM) | 2 (≈ 3.94 µM) | 16 (≈ 31.5 µM) | – | – | – | – | – | – | – | – | – | – | –
COc1ccc2ncc(F)c(CCC34CCC(N(C)Cc5ccc6c(n5)NC(=O)CO6)(CC3)CO4)c2n1 | 16 (≈ 31.5 µM) | 0.13 (≈ 0.256 µM) | 32 (≈ 63 µM) | 8 (≈ 15.8 µM) | 2 (≈ 3.94 µM) | 8 (≈ 15.8 µM) | – | – | <4 | 1.2 | – | – | – | – | – | – | –
COC(=O)N(Cc1ccc2c(n1)NC(=O)CO2)C12CCC(CCc3c(F)cnc4ccc(OC)nc34)(CC1)OC2 | 64 (≈ 116 µM) | 16 (≈ 29 µM) | 64 (≈ 116 µM) | 64 (≈ 116 µM) | 64 (≈ 116 µM) | 64 (≈ 116 µM) | – | – | – | – | – | – | – | – | – | – | –
COc1ccc2ncc(F)c(CCC34CCC(NC(=O)c5ccc6c(n5)NC(=O)CO6)(CC3)CO4)c2n1 | 8 (≈ 15.8 µM) | 0.02 (≈ 0.0394 µM) | 8 (≈ 15.8 µM) | 1 (≈ 1.97 µM) | 0.5 (≈ 0.985 µM) | 8 (≈ 15.8 µM) | – | – | – | – | – | – | – | – | – | – | –
COc1ccc2ncc(F)c(CCC34CCC(N(C)C(=O)c5ccc6c(n5)NC(=O)CO6)(CC3)CO4)c2n1 | 4 (≈ 7.67 µM) | 0.03 (≈ 0.0575 µM) | 4 (≈ 7.67 µM) | 4 (≈ 7.67 µM) | 4 (≈ 7.67 µM) | 4 (≈ 7.67 µM) | – | – | <4 | > 60 | > 30 | – | – | – | – | – | –
COc1ccc2ncc(F)c(C[C@H](O)C3CCC(NCc4nc5c(cc4F)OCC(=O)N5)CO3)c2n1 (stereo not given in full) | 4 (≈ 7.98 µM) | 0.03 (≈ 0.0598 µM) | 16 (≈ 31.9 µM) | 2 (≈ 3.99 µM) | 0.25 (≈ 0.499 µM) | 1 (≈ 1.99 µM) | 3.2 | 6.7 | – | – | – | – | – | – | – | – | –
COc1ccc2ncc(F)c(C[C@H](O)C3CCC(NCc4nc5c(cc4OC)OCC(=O)N5)CO3)c2n1 (stereo not given in full) | 16 (≈ 31.2 µM) | 16 (≈ 31.2 µM) | 16 (≈ 31.2 µM) | 16 (≈ 31.2 µM) | 16 (≈ 31.2 µM) | 16 (≈ 31.2 µM) | – | – | <4 | – | – | – | – | – | – | – | –
COc1ccc2ncc(F)c(C[C@H](O)C3CCC(NCc4ccc5c(n4)NC(=O)CO5)CO3)c2n1 (stereo not given in full) | 16 (≈ 33.1 µM) | 0.03 (≈ 0.062 µM) | 32 (≈ 66.2 µM) | 2 (≈ 4.14 µM) | 2 (≈ 4.14 µM) | 2 (≈ 4.14 µM) | – | – | <4 | – | – | – | – | – | – | – | –
COc1ccc2ncc(F)c(CCC34CCC(NCc5ccc6c(n5)NC(=O)C(C)O6)(CC3)CO4)c2n1 (single isomer, unassigned; (+)) | 2 (≈ 3.94 µM) | – | 2 (≈ 3.94 µM) | 2 (≈ 3.94 µM) | 0.25 (≈ 0.493 µM) | 2 (≈ 3.94 µM) | – | – | – | – | – | 0.25 (≈ 0.493 µM) | – | – | – | – | –
CCOC(=O)C1(C)Oc2ccc(CNC34CCC(CCc5c(F)cnc6ccc(OC)nc56)(CC3)OC4)nc2NC1=O (single isomer, unassigned; (+)) | 16 (≈ 27.6 µM) | 16 (≈ 27.6 µM) | 16 (≈ 27.6 µM) | 16 (≈ 27.6 µM) | – | 16 (≈ 27.6 µM) | – | – | – | – | – | – | 16 (≈ 27.6 µM) | – | – | – | –
COc1ccc2ncc(F)c(CCC34CCC(NCc5ccc6c(n5)NC(=O)C(C)O6)(CC3)CO4)c2n1 (single isomer, unassigned; (-)) | – | – | – | – | – | – | 14 | 28 | – | – | – | 0.06 (≈ 0.118 µM) | 0.25 (≈ 0.493 µM) | 2 (≈ 3.94 µM) | 2 (≈ 3.94 µM) | 2 (≈ 3.94 µM) | 1 (≈ 1.97 µM)
CCOC(=O)C1(C)Oc2ccc(CNC34CCC(CCc5c(F)cnc6ccc(OC)nc56)(CC3)OC4)nc2NC1=O (single isomer, unassigned; (-)) | – | – | – | – | 8 (≈ 13.8 µM) | – | – | – | – | – | – | 8 (≈ 13.8 µM) | – | 8 (≈ 13.8 µM) | 8 (≈ 13.8 µM) | 8 (≈ 13.8 µM) | 8 (≈ 13.8 µM)
